Consider 35 molecules from the Bradley open melting point set (2014).

As a reminder, the melting point is the temperature, or range, at which the solid turns liquid.

The molecule `Nc1ccc(-c2ccc(N)cc2N)c(N)c1` [biphenyl-2,2',4,4'-tetramine] yielded a melting point of 158 °C. Molecule `C=CCBr` [allyl bromide] gave a melting point of -119 °C. Consider `Cc1cc(C)c(CC#N)c(C)c1` [mesitylacetonitrile], for which the melting point is 79 °C.

Turning to `Cc1cc(Br)ccc1Br` [2,5-dibromotoluene], the melting point was determined as 6 °C.

Molecule `CCc1c(C)[nH]c2c1C(=O)C(CN1CCOCC1)CC2` (stereo not given) [molindone] yielded a melting point of 180 °C. For the molecule `COCOC` [Dimethoxymethane], the melting point is -105 °C. Molecule `CC[C@@H]1OC(=O)[C@H](C)C(=O)[C@H](C)[C@@H](O[C@@H]2O[C@H](C)C[C@H](N(C)C)[C@H]2O)[C@](C)(OC)C[C@@H](C)C(=O)[C@H](C)[C@H]2N(CCCCn3cnc(-c4cccnc4)c3)C(=O)O[C@@]12C` [Telithromycin] had a melting point of 182 °C. `NCCCCC(=O)O` [5-aminovaleric acid] registered a melting point of 157 °C. Molecule `Nc1ccc(Nc2ccccc2)cc1` [N-phenyl-p-phenylenediamine] had a melting point of 74 °C. `Oc1c(F)c(F)cc(F)c1F` [2,3,5,6-tetrafluorophenol] registered a melting point of 29 °C. Turning to `O=C(O)c1cc(Cl)ccc1/N=N/C1SC(=S)NC1=O` (stereo not given), the melting point came out at 211 °C. On to `Sc1nc2ccccc2o1` [2-mercaptobenzoxazole], for which the melting point is 192 °C. With `CCCCCCCCCCCCCC(=O)O` [tetradecanoic acid] the figure was 55 °C; with `c1ccc2c(c1)ccc1ccccc12` [phenanthracene], 99 °C; with `Oc1cc2ccccc2cc1O` [2,3-dihydroxynaphthalene], 164 °C. For the molecule `O=C(O)[C@H]1CCCC[C@H]1C(=O)O` [cis-1,2-cyclohexanedicarboxylic acid], the melting point came to 191 °C.

Regarding `COc1cc(C=O)c([N+](=O)[O-])cc1OC` [6-nitroveratraldehyde], the melting point stood at 133 °C.

With `CC(=O)OC1CCC2(C)C(CCC3C2CCC2(C)C3CCC2(O)C#Cc2ccccc2)C1` (stereo not given) [17-hydroxy-21-phenylpregn-20-yn-3-yl acetate], the melting point was 166 °C. In turn, `CCCCCCCCCCC(C)=O` [2-dodecanone] came in with a melting point of 21 °C. The figure for `COC(=O)c1ccc([N+](=O)[O-])cc1` [methyl 4-nitrobenzoate] is 96 °C; for `CCOC(=O)C#CC(=O)OCC` [diethyl acetylenedicarboxylate] it is 2 °C; for `O=CCc1ccccc1` [phenylacetaldehyde] it is -10 °C. As to `O=c1cc(-c2ccccc2)[nH]o1` [3-phenyl-5-isoxazolone], the melting point came out at 152 °C. `CCc1ccc(C)cc1` [1-methyl-4-ethylbenzene] returned a melting point of -62 °C. Regarding `O=C(O)c1cc2ccccc2o1` [benzo[b]furan-2-carboxylic acid], the melting point is 194 °C. `BrCCCBr` [1,3-Dibromopropane] came in with a melting point of -34 °C. In turn, `Ic1ccccc1` [iodobenzene] returned a melting point of -31 °C. On to `CCS(=O)(=O)CCn1c([N+](=O)[O-])cnc1C` [Tinidazole], for which the melting point is 128 °C.

In the case of `C=CCCCC` [Hex-1-ene], the melting point was -140 °C. `c1ccc2cc3cc4ccccc4cc3cc2c1` [naphthacene] displayed a melting point of 357 °C. On to `Nc1ncc(Br)cc1Br` [2-amino-3,5-dibromopyridine], for which the melting point was 104 °C. Molecule `Cc1cc(C)cc(C)c1` [Mesitylene] gave a melting point of -45 °C. Take `CCOC(=O)C(C#N)=Cc1ccccc1` [Ethyl 2-Cyano-3-Phenylacrylate]: the melting point turned out to be 49 °C.

In the case of `c1ccc([Si]2(c3ccccc3)O[Si](c3ccccc3)(c3ccccc3)O[Si](c3ccccc3)(c3ccccc3)O[Si](c3ccccc3)(c3ccccc3)O2)cc1` [octaphenylcyclotetrasiloxane], the melting point amounted to 201 °C. Consider `COC(=O)c1ccc(C#N)cc1` [methyl 4-cyanobenzoate], for which the melting point was 67 °C.
